“Also recorded” adds a separate entry of the source. Each block holds one compound with its values, some of them ahead of it.
Experiments:
[1] = In vitro release from polymeric implants; format: in vitro ADME; conditions: for cumulative release over 3 weeks: 37°C
[2] = test system: DBP-induced lung DNA adducts; assay: Inhibition of DBP-DNA adducts in lung tissue, 32P-postlabeling; format: in vivo, female A/J mice; conditions: coated implants, DBP-treated mice, 3 weeks
[3] = test system: human lung cancer A549 xenograft; assay: Effect on tumor xenograft
[4] = Tissue curcumin/curcuminoids levels by UPLC-fluorescence; format: in vivo, female A/J mice; conditions: for concentration at 21 days: female, A/J
[5] = parameters: species or system mice; conditions: mouse, in vivo
[6] = coated implants, PBS + 10% bovine serum
[7] = implants of the individual curcuminoids, 21 days

- release in PBS alone ([1]; coated implants agitated in PBS alone at 37°C): essentially no release
- cumulative release ([1]; coated implants, PBS + 10% bovine serum, after 21 days): about 12%
- cumulative release ([1]; coated implants, PBS + 10% bovine serum, after 60 days): ~27%
- in vitro release pattern ([1]; coated implants, PBS + 10% bovine serum, over 60 days / eight weeks): almost zero-order kinetics
Compound: Cc1c(-c2cnccn2)ssc1=S [oltipraz, reference compound]
- effect on DBP-DNA adduct levels in lung [2]: reduction was statistically significant
- lung DNA adducts [2]: 28±7 adducts/10^9 nucleotides

- total dose administered via the two implants ([3]; calculated based on the residual amount in the implants): 2.69 mg
Compound: CC1=C(CO)C(=O)O[C@@H]([C@@H](C)[C@H]2CC[C@H]3[C@@H]4C[C@H]5O[C@]56[C@@H](O)C=CC(=O)[C@]6(C)[C@H]4CC[C@]23C)C1 [withaferin A]
- effect on DBP-DNA adduct levels in lung [2]: reduction in the DNA adduct levels
- effect on DBP-DNA adduct levels in lung ([2]; listed as Withaferin A): diminished DNA adducts, but it was insignificant
- effect on A549 xenograft ([3]; given via the implants): significantly inhibited
- inhibition of the tumor ([3]; intraperitoneally 8 mg/kg, alternate days): 53%
- effect on tumor ([3]; intraperitoneally, lower dose 4 mg/kg (same total dose as implants), 4 mg/kg): ineffective; also recorded: no reduction
- body weight at the end of the 8-week study ([3]; via implants vs sham): essentially the same body weight
- reduction in the growth of the tumor (tumor volume) ([3]; via implants, two 1.5-cm, 5% load): 51%

The next lines start with the compound.

Compound: O=C(/C=C/c1ccc(O)cc1)CC(=O)/C=C/c1ccc(O)cc1 [curcumin III, bisdemethoxycurcumin]
- cumulative release over 3 weeks [1, 6]: 51.4%
- concentration at 21 days ([4]; mouse, in vivo, level in brain): 6.4 ng/g
- concentration at 21 days ([4]; mouse, in vivo, level in liver): 5 to 6 ng/g
- concentration at 21 days ([4]; mouse, in vivo, level in lung): 49.7 ± 1.3 ng/g

Compound: COc1cc(/C=C/C(O)=C/C(=O)/C=C/c2ccc(O)cc2)ccc1O [curcumin II, demethoxycurcumin]
- cumulative release over 3 weeks [1, 6]: 41.8%
- concentration at 21 days ([4]; mouse, in vivo, level in brain): 1 ng/g
- concentration at 21 days ([4]; mouse, in vivo, level in lung): 1.4 ± 0.4 ng/g

Compound: curcumin
- composition of the three curcuminoids in lung tissue ([4]; mouse, in vivo): essentially the same compositions
- ratio of the three curcuminoids in the liver ([4]; mouse, in vivo): 74:18:8
- biochemical parameters of kidney function [5]: No significant differences
- effect on body weight [5]: no significant effect
- hematological parameters (white blood cells, red blood cells, hemoglobin) [5]: No significant differences
- liver enzymes [5]: No significant differences
- neutrophils, lymphocytes, monocytes, eosinophils, and basophils [5]: no statistical difference

Compound: COc1cc(/C=C/C(=O)CC(=O)/C=C/c2ccc(O)c(OC)c2)ccc1O [curcumin I]
- level in lung ([4]; implants of the individual curcuminoids, 10% load, 21 days): 6.5 ± 1.6 ng/g lung
- level in brain [4, 7]: 1.4 ng/g tissue
- level in liver [4, 7]: 5–6 ng/g tissue

Reference: PMC3462657 (Cancer letters, 2012)
